“Also recorded” adds a separate entry of the source.
Experiments:
[1] = system: acoustic startle reactivity; test: Acoustic startle reactivity on day ten of chronic dosing; conditions: day ten of b.i.d. oral dosing
Description: The effects of chronic dosing of nepicastat were examined. Between three and thirteen days prior to the first dosing day the rats were placed inside the startle apparatus and after a five minute acclimation period they were presented with a 118 dB noise burst on average once a minute (a variable inter-trial interval ranging between 30 and 90 seconds will be used) for 20 minutes. The startle responses were measured and a mean for the last twenty startle response was calculated for each rat.
Acoustic startle reactivity (a series of muscle contractions elicited by an intense burst of noise with a rapid onset), and pre-pulse inhibition (sensorimotor gating measured by analyzing any decrease in startle reactivity which occurs when a startling stimulus is immediately preceded by a non startling stimulus) were both measured in eight SR-Lab (San Diego Instruments, San Diego, Calif.) test stations. The rats were placed individually in a Plexiglas cylinder (10 cm diameter) which was housed in a ventilated sound-attenuating enclosure. Acoustic noise bursts (a broad band noise with a rise time and fall time of 1 msec) were presented via a speaker mounted 30 cm above the animal. Also, these speakers produced a 68 dB level of background noise throughout all test sessions. […] A decibel meter was used to calibrate the speakers in each of the eight test station to ±1% of the mean. Additionally, a SR-Lab calibrating instrument was used to calibrate each of the eight startle detection apparatuses to ±2% of the mean. Startle reactivity and pre-pulse inhibition tests were run concurrently immediately alter the motor activity test (about 4 hours and 40 minutes after the morning daily injection of nepicastat, and SKF-102698, and 10 minutes after a supplemental administration of clonidine and d-amphetamine on dosing day ten).

parkinsonian symptoms = test: Parkinsonian clinical rating scale (CRS) in MPTP-lesioned monkeys; assay type: in vivo, squirrel monkeys (Saimiri sciureus); conditions: hydrochloride
Description: A total of 24 squirrel monkeys (Saimiri sciureus), fourteen females and ten males were used in this study. The twenty-four animals were randomly assigned to one of four treatment groups, with 6 animals per group. The groups consisted of the following (1) group A: placebo (2) group B: 1 mg/kg/day; (3) group C: 4 mg/kg/day; and (4) group D: 10 mg/kg/day. In Group B, one animal died acutely following MPTP-lesioning, and was not replaced.
Animals were lesioned by the administration of MPTP at a concentration of 2.0 mg/kg (free-base) via subcutaneous injection to achieve a parkinsonian state (see FIGS. 151-156). A post-MPTP lesioning behavioral assessment was carried out 2 to 4 weeks after the last MPTP-Iesioning. Locomotor activity was monitored by IRAM in 60-minute sessions for 3 to 5 days. Clinical behavior (CAS) was assessed by one to three individuals rating over a period of 3 to 5 days.
Animals were tested for response to L-Dopa and the efficacy of drug nepicastat. Testing was carried out 4 to 12 weeks after the last MPTP dose. Twenty-tour squirrel monkeys were randomly assigned to 4 groups; Group A (6 animals) received placebo (water) treatment; Group B (5 animals) received drug nepicastat at 1 mg/kg/day (0.5 mg/kg twice daily); Group C (6 animals) received 4 mg/kg/day (2 mg/kg twice daily); and Group D (6 animals) received 10 mg/kg/day (5 mg/kg twice daily).
L-Dopa was administered at a concentration of either 2.5, 5, or 7.5 mg/kg by oral gavage twice daily (at 10 am and 2 pm) for 7 consecutive days. Behavior was determined by IRAM and CRS. Clinical rating was carried out 60 to 90 minutes following the 10 am morning dose on the last 4 days of treatment. Raters (one to three individuals) were blinded to the different treatment groups. IRAM assessment were preformed for 90 minutes immediately following drug administration at 2 pm on the last 2 to 5 days of drug treatment. There was a minimum 2 day washout period between each treatment dose.
Drug nepicastat or water (as placebo) was administered for 12 days following a minimum 2 day washout after L-Dopa dosing. Drug was administered twice daily at 10 am and 2 pm by oral gavage. Behavior was rated by IRAM and CRS. The CRS was conducted in the morning, 60 to 90 minutes after the 10 am dose of nepicastat on the last 5 days of drug treatment. Raters (one to three individuals) were blinded to the different treatment groups. IRAM assessments were preformed for 90 minutes immediately following drug administration at 2 pm on the last 5 days of drug treatment.
Eight parkinsonian features were rated in each animal and the total score was derived from the sum of these eight features. […]

[2] = Plasma levels of nepicastat and N-acetyl metabolite in dogs, 2 mg/kg b.i.d.; assay type: in vivo, beagle dogs; conditions: 2 mg/kg bid, sampled 6 h after AM dose
Description: Male Beagle dogs (Marshall farms, North Rose, N.Y.) weighing between 9-16 kg were used in the study. The animals were allowed water ad libitum and given food once daily at ˜10.00 AM. Animals were randomly assigned to one of the following treatment groups (n=8/group): placebo (empty capsule), or nepicastat at 2 mg/kg b.i.d (4 mg/kg/day). Each animal received 2 doses daily, morning and afternoon (8-10 hours apart). Daily blood samples (10 ml) were drawn 6 h after the AM dose for measurement of plasma levels of nepicastat and catecholamines. The blood was collected in tubes containing heparin and glutathione and centrifuged at −4° C. within 1 h of collection. The plasma was separated and divided into two samples, one for the measurement of plasma catecholamines and the other for analysis of nepicastat.
Plasma NE, DA and EPI were anaylysed by HPLC using electrochemical detection. Plasma concentration of nepicastat was determined by HPLC using electrochemical detection.

Fc1cc(F)cc(Cn2cc[nH]c2=S)c1 [SKF 102698, reference compound]
acoustic startle reactivity vs vehicle [1]: significantly lower startle response compared to cyclodextrin
acoustic startle reactivity vs vehicle ([1]; listed as SKF102698): significantly reduced

Cl.NCc1c[nH]c(=S)n1[C@H]1CCc2c(F)cc(F)cc2C1 [nepicastat, (S)-5-Aminomethyl-1-(5,7-difluoro-1,2,3,4-tetrahydronaphth-2-yl)-2,3-dihydro-2-thioxo-1H-imidazole hydrochloride]
CRS / parkinsonian symptoms compared to placebo (parkinsonian symptoms; 1, 4, 10 mg/kg/day, 12 days, non-pairwise): no detectable differences; also recorded: no significant effect
CRS / parkinsonian symptoms compared to post-MPTP (pre-treatment) state (parkinsonian symptoms; nepicastat 4 and 10 mg/kg/day, pairwise): significant improvement; also recorded: significant effect
time of peak plasma levels of the drug [2]: 2 days post-dose

From patent US20090054403A1, “Treatment of Post-Traumatic Stress Disorder” (priority 2007, published 2009)
